Data on four compounds can be found in publication PMC13170813, “Agmatine coumaroyltransferase gene on the short arm of chromosome 2H is involved in hordatine biosynthesis in barley” (Plant Biotechnology, 2026).

The subject of the assay is T1, HvACT-2HS1.
T1 construct: full-length, 467 residues; pET28a (NdeI) N-terminal His-tag removed with thrombin; E. coli Rosetta 2 (DE3); 57 kDa SDS-PAGE, 51 kDa native, monomer
Nature of the assay: HPLC of product ([…] nm), Michaelis-Menten non-linear fit. In kind it is biochemical, Hordeum vulgare subsp. vulgare. Particulars: 100 mM Tris-HCl pH 8.5, 40°C.

Broadly, the Km is the substrate concentration at which the rate is half of its maximum. With `COc1cc(/C=C/C(=O)SCCNC(=O)CCNC(=O)[C@H](O)C(C)(C)COP(=O)(O)OP(=O)(O)OC[C@H]2O[C@@H](n3cnc4c(N)ncnc43)[C@H](O)[C@@H]2OP(=O)(O)O)ccc1O` [Feruloyl-CoA], the Km (100 µM agmatine) was determined as 6.6 ± 2.2 µM.
Still for that read-out and setting: under `CC(C)(COP(=O)(O)OP(=O)(O)OC[C@H]1O[C@@H](n2cnc3c(N)ncnc32)[C@H](O)[C@@H]1OP(=O)(O)O)[C@@H](O)C(=O)NCCC(=O)NCCSC(=O)/C=C/c1ccc(O)cc1` [p-Coumaroyl-CoA] stands 12 ± 1.3 µM.
Consider `NCCCCN` [Putrescine], for which the Michaelis constant (Km) (100 µM p-coumaroyl-CoA) worked out at 30000 µM.
`N=C(N)NCCCCN` [Agmatine]: the Km (100 µM p-coumaroyl-CoA) is 30 ± 1.3 µM.
